We go through eight compounds from US7973066B2, “Pyrrolo[1,2-A]imidazoledione effective in the treatment of peripheral neurotoxicity induced by chemotherapeutic agents” (Neurotune AG, priority 2006, dated 2011).

Data set [1] relates to Oxaliplatin-induced peripheral neuropathy. In words: Oxaliplatin-induced peripheral neuropathy, paw pressure test. The format is in vivo, rat. As to conditions: for prevention of oxaliplatin-induced decrease of mechanical threshold: 100 mg/kg p.o. once daily starting three days before oxaliplatin, tested every week 30 min after administration; for effects on vehicle treated animals (paw pressure): vehicle treated rats. How it is done:
The cumulative dose of oxliplatin was 36 mg/kg (Cavaletti G. et al. 2001, Eur. J. Cancer 37:2457-2463).
(§1) When a chemotherapeutic injection was to be given on a same day as behavioural testing, rats were injected after the measurement was taken.
(§2) Paw mechanical iper-sensitivity was determined using a Randall & Selitto apparatus exerting a force that increases at constant rate (32 g/s) in agreement with Leighton G. E. et al. (1988, Br. J. Pharmacol 93:553-560). The stimulus at which rats withdraw the paw was evaluated before and at different times after drugs treatment. Results represent the mean of mechanical thresholds expressed as grams. To avoid any possible damage to the animal paw the maximum applied force was fixed at 240 g.
Maximum hyperalgesia was obtained after a two weeks period of treatment. […] Compound administration was performed in the same days of chemotherapeutic injection.

Data set [2] deals with Taxol-induced peripheral neuropathy. In words: Taxol-induced peripheral neuropathy, paw pressure test. It counts as in vivo, rat. The note with it: for anti-hyperalgesic activity, i.v.: 3 mg/kg i.v.; for anti-hyperalgesic activity, i.v. / anti-hyperalgesic activity, i.p.: 30-90 min from administration; for anti-hyperalgesic activity, i.p.: 30 mg/kg i.p.; for rat paw pressure threshold, anti-hyperalgesic effect: 100 mg/kg given orally, 30 and 60 min after treatment. How it is done:
Taxol neuropathy was induced by i.p. administration (0.5 mg/kg) once a day, on days 1, 3, 5, 8. Cumulative taxol dose was 2 mg/kg. The pharmacological test was performed 14-18 days after the last taxol injection (Polomano R. C. et al. 2001, Pain 94:293-304).
as §1, §2

For data set [3], the system named is Vincristine-induced peripheral neuropathy. The data set is described as follows: Vincristine-induced peripheral neuropathy, paw pressure test. It counts as in vivo, rat. The note with it: for anti-hyperalgesic effect on mechanical hyperalgesia after repeated treatment: 30 mg/kg i.p. daily during last five days of vincristine, 1 hr and 12 hr after last administration; for reversal of vincristine mechanical hyper-sensitivity (paw pressure threshold): 100 mg/kg p.o., 30 and 60 min after treatment, 4 days after last vincristine injection; for activity on vehicle treated animals (paw pressure): vehicle treated rats, p.o. How it is done: Vincristine was administered i.v. (150 μg/kg), every two days until a cumulative dose of 750 μg/kg was reached. Paw mechanical iper-sensitivity was evaluated 4 days after the last vincristine injection (Marchand F. et al. 2003, Brain Res. 980:117-120).
as §1, §2

In data set [4] the test system is CIPN. The note with it: cancer patients with CIPN; cited from earlier work.
Data set [5] deals with CIPN. The note with it: phase III, 10 weeks of therapy; cited from earlier work.
Data set [6] relates to cisplatin-induced pain syndrome. The note with it: 51 patients, maximum dose 100 mg/day; cited from earlier work.
For data set [7], the system named is HT29 human colon carcinoma cell line. In words: In vitro cytotoxicity and combination studies, ATPlite. The note with it: for IC50: read-out: cytotoxic effect IC50. How it is done:
In order to verify if the use of NiK-13317 for the treatment of CIPN would not affect the efficacy of anticancer treatments, the effect of NiK-13317 on cytotoxicity of known anticancer drugs was examined in vitro using HT29 human colon carcinoma cell line.
After 72 hours, cells were lysed and cell metabolic activity was quantified with ATPlite kit (Perkin Elmer Life Science) following manufacturer's recommendations. The ATP present in all metabolically active cells catalyses a reaction of transformation of D-luciferin by Luciferase, producing a luminescent signal measured using VICTOR^3™ Multi Label Reader (Perkin Elmer). Results were expressed as percentage of luminescence produced (i.e. ATP produced) compared to the control. Complete concentration-response curves with anticancer drugs were constructed in order to identify the concentrations producing a submaximal and a maximal cytotoxic effect, to be utilized for combination experiments.

Molecules are shown by their SMILES. Read-outs that look alike come from different tables or passages of the source.

Turning to `Cc1ccc(N2C(=O)CN3C(=O)CCC32)cc1` (racemic) [NiK-13317, racemic 1-(4-Methylphenyl)dihydro-1H-pyrrolo[1,2-a]imidazole-2,5(3H,6H)-dione], the “prevention of oxaliplatin-induced decrease of mechanical threshold” value in data set [1] is recorded as “completely prevented”. The “anti-hyperalgesic activity, pharmacodynamic experiment, 8 hr” value in data set [1] (after 3 weeks of oxaliplatin, 100 mg/kg p.o., 8 hr after treatment) was “still active”. Further, the “anti-hyperalgesic activity, pharmacodynamic experiment, 30 min and 4 hr” value in data set [1] (after 3 weeks of oxaliplatin, given orally, 30 min and 4 hr after administration) is on record as “active”. Besides, in data set [1] (p.o.), the “effects on vehicle treated animals (paw pressure)” value is on record as “Neither NiK-13317 or gabapentin induced significant effects”. Also, in data set [2], the “anti-hyperalgesic activity, i.v.” value is “active”; the “anti-hyperalgesic activity, i.p.” value is “active”; the “rat paw pressure threshold, anti-hyperalgesic effect” value is “significantly increased”. Moreover, in data set [3], the “anti-hyperalgesic effect on mechanical hyperalgesia after repeated treatment” value is given as “statistically significant (p<0.01) anti-hyperalgesic effect”, the “reversal of vincristine mechanical hyper-sensitivity (paw pressure threshold)” value was “pronounced significant reversal” and the “activity on vehicle treated animals (paw pressure)” value is recorded as “devoid of any significant activity”. In data set [3] (30 mg/kg i.p. daily, 5 days), the “development of tolerance after repeated treatment” value is on record as “without development of tolerance”. Moreover, the “anti-hyperalgesic effect 23 hr after the 4th administration” value in data set [3] (30 mg/kg i.p. daily, 23 hr after 4th administration (1 hr before last injection)) was “statistically significant effect (p<0.05)”.
Take `Cc1ccc(N2C(=O)CN3C(=O)CCC32)cc1` (single isomer, unassigned) [compound of formula (I), 1-(4-Methylphenyl)dihydro-1H-pyrrolo[1,2-a]imidazole-2,5(3H,6H)-dione]: in data set [3] (rat, in vivo), the “development of tolerance (general statement)” value is “not to develop tolerance”.
`NCC1(CC(=O)O)CCCCC1` [gabapentin]: in data set [1], the “prevention of oxaliplatin-induced decrease of mechanical threshold” value is reported as “only a moderated anti-hyperalgesic effect”. Moreover, in data set [1] (after 3 weeks of oxaliplatin, p.o., 30 min after treatment), the “anti-hyperalgesic activity, pharmacodynamic experiment, 30 min” value is reported as “only a moderate effect”. Moreover, the “effects on vehicle treated animals (paw pressure)” value in data set [1] (p.o.) is on record as “Neither NiK-13317 or gabapentin induced significant effects”. Also, in data set [2], the “anti-hyperalgesic activity, i.v.” value is listed as “lacked of any significant effect”; the “anti-hyperalgesic activity, i.p.” value was “lacked of any significant effect”; the “rat paw pressure threshold, anti-hyperalgesic effect” value was “not able to induce any anti-hyperalgesic effect”. For the same compound, in data set [3], the “anti-hyperalgesic effect on mechanical hyperalgesia after repeated treatment” value is “no significant effects”, the “reversal of vincristine mechanical hyper-sensitivity (paw pressure threshold)” value is recorded as “lacked of any significant effects” and the “activity on vehicle treated animals (paw pressure)” value is “devoid of any significant activity”. Also, in the data set with CIPN [4], the “adverse side effects such as nystagmus and dizziness” value was “significant more adverse side effects”; the “reduction of pain intensity (NRS score), sensory neuropathy (ECOG rating), and other adverse events” value is reported as “failed to reduce”.
As for `Nc1nnc(-c2cccc(Cl)c2Cl)c(N)n1` [lamotrigine], in the data set on CIPN [5], the “reduction of CIPN” value is on record as “failed to reduce CIPN”.
For the compound `CNCCC=C1c2ccccc2CCc2ccccc21` [nortriptyline], in data set [6], the “efficacy over placebo on cisplatin-induced pain syndrome” value was “lack of nortriptyline efficacy over placebo”.
For `O=C1[O][Pt]2([NH][C@@H]3CCCC[C@H]3[NH]2)[O]C1=O` [oxaliplatin], the IC50 in data set [7] (HT29 cells, 72 hours, ATPlite) came to 36000 nM. For the same compound, in data set [1] (oxaliplatin 2.4 mg/kg i.p., 5 consecutive days every week, evident from first week), the “paw pressure threshold change caused by repeated oxaliplatin” value is reported as “decrease in paw pressure threshold”.
`CC(=O)O[C@H]1C(=O)[C@@]2(C)[C@H]([C@H](OC(=O)c3ccccc3)[C@]3(O)C[C@H](OC(=O)[C@H](O)[C@@H](NC(=O)c4ccccc4)c4ccccc4)C(C)=C1C3(C)C)[C@]1(OC(C)=O)CO[C@@H]1C[C@@H]2O` [taxol]: the “concentration of maximal cytotoxic effect” value in data set [7] (HT29 cells, 72 hours, ATPlite) was 100 nM. In addition, in data set [7] (Homo sapiens, HT-29, 72 h), the IC50 worked out at 8 nM. Moreover, the “mechanical hyperalgesia produced by taxol treatment” value in data set [2] (taxol 0.5 mg/kg i.p. on days 1, 3, 5, 8) is “significant mechanical hyperalgesia”.
As for `CC[C@]1(O)C[C@H]2CN(CCc3c([nH]c4ccccc34)[C@@](C(=O)OC)(c3cc4c(cc3OC)N(C=O)[C@H]3[C@@](O)(C(=O)OC)[C@H](OC(C)=O)[C@]5(CC)C=CCN6CC[C@]43[C@@H]65)C2)C1` [vincristine], in data set [7] (HT29 cells, 72 hours, ATPlite), the “concentration of maximal cytotoxic effect” value is reported as 100 nM. Further, the IC50 in data set [7] (Homo sapiens, HT-29, 72 h) stood at 7 nM. For the same compound, in data set [3] (vincristine 150 μg/kg i.v. every two days, cumulative 750 μg/kg), the “mechanical hyperalgesia produced by vincristine treatment (reduction of paw pressure threshold)” value is “marked and prolonged mechanical hyperalgesia”.
